Measurements: patent publication US20150284385A1, “CERTAIN DIPEPTIDYL PEPTIDASE INHIBITORS” (SHANGHAI FOCHON PHARMACEUTICAL CO LTD, priority 2012, published 2015)
Like-named read-outs stand apart in the source and are kept apart here.

Tests used:
[1] = target: T1, DPP-4 (Mus musculus, UniProt P28843); experiment: Plasma DPP-4 activity in mice after oral dosing; assay type: in vivo, ICR mice; conditions: read-out: DPP-4 Relative activity %; for activity at 1 mg/kg: oral 1 mg/kg; for activity at 3 mg/kg: mice plasma, oral 3 mg/kg
T1 construct: Blood sample was processed to obtain plasma; from tissue; host or cells: plasma of male ICR mice
Description: Some of the exemplary compounds were tested in mice to assess inhibition of DPP-4 activity via plasma DPP-4 activity. Male ICR mice (25-30 g) were used for this study. All the mice were fasted at least 3 hours before study. Mice (n=6/group) received vehicle or at least one of the exemplary compounds by oral gavage. The dosing solutions were 0.15 mg/ml for the 3 mg/kg. Dosing volume was 20 mL/kg of body weight for all doses. The vehicle was distilled water. […] Blood sample was processed to obtain plasma (2000 g, 5 min, 4° C.) within 15 min after sampling.
Plasma was collected and tested by fluoremetry. Before the testing, 80 mM MgCl2 buffer was added into the 5 uL serum samples and pre-incubation for 5 minutes at room temperature, then […] of 0.1 mM substrate Gly-Pro-AMC and 20 μL of buffer were added into them. The fluorescence of the mixture was measured every 3 minutes after mixing (excitation at 380 nm; emission at 460 nm). After 6 times of measurements, a time-fluorescence cure was obtained. The slope of the curve would be the activity of DPP-4 in serum. The DPP-4 activity before administration was 100%. The relative activity of DPP-4 in serum was calculated using the formula below:
Relative DPP-4activity=DPP-4activity after dosing/DPP-4activity before dosing×100%.

[2] = target: Recombinant human DPP-IV (Homo sapiens, UniProt P27487); experiment: DPP-IV assay in vitro (H-Ala-Pro-AFC fluorescence); assay type: biochemical; conditions: 30 min pre-incubation, H-Ala-Pro-AFC 50 μM
Description: DPP-IV Assay Solutions of test compounds in varying concentrations (10^−5 mol/L, 10^−6 mol/L, 10^−7 mol/L, 10^−8 mol/L, 10^−9 mol/L, 10^−10 mol/L, 10^−11 mol/L, and 10^−12 mol/L) were prepared in dimethyl sulfoxide (DMSO) and then diluted into assay buffer comprising: 10 mM Tris-HCl pH 8.0, 0.2 M NaCl, and 0.1% BSA. Recombinant human DPP-IV (7.8 ng/ml final concentration) was added to the dilutions and pre-incubated for 30 mins at room temperature before the reaction was initiated with H-Ala-Pro-AFC (50 μM final concentration). The total volume of the reaction mixture was 100 μl.
Inhibition constants (IC50) were calculated by GraphPad Prism.

[3] = Table 4 Test 2, mice plasma, 1 h after dosing
[4] = Table 4 Test 2, mice plasma, 2 h after dosing
[5] = Table 4 Test 2, mice plasma, 4 h after dosing
[6] = Table 4 Test 2, mice plasma, 6 h after dosing
[7] = Table 4 Test 2, mice plasma, 9 h after dosing
[8] = Table 4 Test 2, mice plasma, 24 h after dosing

Sequence of Recombinant human DPP-IV (P27487 whole entry): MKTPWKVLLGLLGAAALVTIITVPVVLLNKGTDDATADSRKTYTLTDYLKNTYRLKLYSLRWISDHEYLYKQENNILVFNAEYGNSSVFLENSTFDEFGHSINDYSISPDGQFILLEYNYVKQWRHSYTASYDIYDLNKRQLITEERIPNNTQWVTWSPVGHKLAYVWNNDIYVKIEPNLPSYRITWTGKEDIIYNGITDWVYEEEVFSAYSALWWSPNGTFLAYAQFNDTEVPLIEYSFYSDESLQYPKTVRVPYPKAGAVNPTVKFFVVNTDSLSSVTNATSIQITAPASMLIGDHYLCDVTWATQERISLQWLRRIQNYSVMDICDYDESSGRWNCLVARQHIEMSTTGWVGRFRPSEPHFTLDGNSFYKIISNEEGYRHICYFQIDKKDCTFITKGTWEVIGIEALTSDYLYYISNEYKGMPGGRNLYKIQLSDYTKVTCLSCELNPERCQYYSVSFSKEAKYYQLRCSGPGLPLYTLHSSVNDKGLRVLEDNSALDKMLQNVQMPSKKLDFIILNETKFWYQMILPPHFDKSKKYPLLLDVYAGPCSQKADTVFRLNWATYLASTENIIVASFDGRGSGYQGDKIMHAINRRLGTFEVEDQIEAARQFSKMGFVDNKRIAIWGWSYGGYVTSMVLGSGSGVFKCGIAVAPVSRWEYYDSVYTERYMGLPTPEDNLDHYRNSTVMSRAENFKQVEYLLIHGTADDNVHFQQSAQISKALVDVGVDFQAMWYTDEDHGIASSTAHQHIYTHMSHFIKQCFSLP
T1 sequence (P28843 37-760 limits assumed): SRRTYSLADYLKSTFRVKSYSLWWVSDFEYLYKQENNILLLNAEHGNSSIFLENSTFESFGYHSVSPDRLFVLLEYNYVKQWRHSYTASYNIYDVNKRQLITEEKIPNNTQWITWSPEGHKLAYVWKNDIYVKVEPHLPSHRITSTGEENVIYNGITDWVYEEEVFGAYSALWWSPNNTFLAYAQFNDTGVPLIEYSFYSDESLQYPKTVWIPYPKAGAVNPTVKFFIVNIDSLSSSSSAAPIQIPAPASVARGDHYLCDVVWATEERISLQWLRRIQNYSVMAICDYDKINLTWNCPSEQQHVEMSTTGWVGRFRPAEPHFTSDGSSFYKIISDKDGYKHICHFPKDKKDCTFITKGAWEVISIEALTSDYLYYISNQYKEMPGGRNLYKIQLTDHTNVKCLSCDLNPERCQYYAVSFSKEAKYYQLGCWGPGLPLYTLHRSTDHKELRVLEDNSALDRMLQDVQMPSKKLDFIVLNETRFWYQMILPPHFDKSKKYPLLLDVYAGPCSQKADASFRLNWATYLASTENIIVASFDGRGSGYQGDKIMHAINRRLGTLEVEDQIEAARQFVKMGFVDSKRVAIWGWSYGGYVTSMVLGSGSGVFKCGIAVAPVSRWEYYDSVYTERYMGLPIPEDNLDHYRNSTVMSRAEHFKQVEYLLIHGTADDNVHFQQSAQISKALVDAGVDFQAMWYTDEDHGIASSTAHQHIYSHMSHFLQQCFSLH

SMILES: N[C@H]1Cc2c(nc3cc(-c4nnco4)ccn23)C[C@@H]1c1cc(F)c(F)cc1F [Example 1, (7R,8S)-3-(1,3,4-Oxadiazol-2-yl)-7-(2,4,5-trifluorophenyl)-6,7,8,9-tetrahydrobenzo[4,5]imidazo[1,2-a]pyridine-8-amine]
- activity at 1 mg/kg ([1]; Table 4 Test 3, mice plasma, 1 h after dosing): 11.9 ± 1.2%
- activity at 1 mg/kg ([1]; Table 4 Test 3, mice plasma, 2 h after dosing): 7.4 ± 1%
- activity at 1 mg/kg ([1]; Table 4 Test 3, mice plasma, 4 h after dosing): 8.6 ± 0.8%
- activity at 1 mg/kg ([1]; Table 4 Test 3, mice plasma, 6 h after dosing): 8.4 ± 1.3%
- activity at 1 mg/kg ([1]; Table 4 Test 3, mice plasma, 9 h after dosing): 9 ± 1.2%
- activity at 1 mg/kg ([1]; Table 4 Test 3, mice plasma, 12 h after dosing): 8.8 ± 0.9%
- activity at 1 mg/kg ([1]; Table 4 Test 3, mice plasma, 24 h after dosing): 14.4 ± 1.8%
- activity at 3 mg/kg ([1]; 1 h after dosing): 38.7 ± 4.2%
- activity at 3 mg/kg ([1]; 2 h after dosing): 34.9 ± 3%
- activity at 3 mg/kg ([1]; 3 h after dosing): 31.2 ± 2.3%
- activity at 3 mg/kg ([1]; 5 h after dosing): 39.2 ± 3.3%
- IC50 [2]: 0.8 nM

SMILES: Cc1nnc(-c2ccn3c4c(nc3c2)C[C@H](c2cc(F)c(F)cc2F)[C@@H](N)C4)o1 [Example 2, (7R,8S)-3-(5-Methyl-1,3,4-oxadiazol-2-yl)-7-(2,4,5-trifluorophenyl)-6,7,8,9-tetrahydrobenzo[4,5]imidazo[1,2-a]pyridin-8-amine]
- activity at 1 mg/kg [1, 3]: 9.4 ± 1.8%
- activity at 1 mg/kg [1, 4]: 11.6 ± 2%
- activity at 1 mg/kg [1, 5]: 7.7 ± 2.1%
- activity at 1 mg/kg [1, 6]: 9.6 ± 1.3%
- activity at 1 mg/kg [1, 7]: 7.8 ± 2.7%
- activity at 1 mg/kg [1, 8]: 16.4 ± 3.7%
- activity at 3 mg/kg ([1]; 1 h after dosing): 17 ± 3.3%
- activity at 3 mg/kg ([1]; 2 h after dosing): 22.6 ± 3.1%
- activity at 3 mg/kg ([1]; 3 h after dosing): 22.6 ± 1.1%
- activity at 3 mg/kg ([1]; 5 h after dosing): 25.9 ± 3.8%
- IC50 [2]: 1.2 nM

SMILES: N[C@H]1Cc2c(nc3cc(-c4ncon4)ccn23)C[C@@H]1c1cc(F)c(F)cc1F [Example 3, (7R,8S)-3-(1,2,4-Oxadiazol-3-yl)-7-(2,4,5-trifluorophenyl)-6,7,8,9-tetrahydrobenzo[4,5]imidazo[1,2-a]pyridine-8-amine]
- activity at 1 mg/kg [1, 3]: 15 ± 0.6%
- activity at 1 mg/kg [1, 4]: 13.6 ± 1.7%
- activity at 1 mg/kg [1, 5]: 8.6 ± 1.1%
- activity at 1 mg/kg [1, 6]: 13.8 ± 2.4%
- activity at 1 mg/kg [1, 7]: 11.8 ± 2.4%
- activity at 1 mg/kg ([1]; Table 4 Test 2, mice plasma, 12 h after dosing): 15.6 ± 2.4%
- activity at 1 mg/kg [1, 8]: 38.4 ± 4.3%
- activity at 3 mg/kg ([1]; 1 h after dosing): 16 ± 2.3%
- activity at 3 mg/kg ([1]; 2 h after dosing): 15 ± 3%
- activity at 3 mg/kg ([1]; 3 h after dosing): 20 ± 1.8%
- activity at 3 mg/kg ([1]; 5 h after dosing): 26.5 ± 3.5%
- IC50 [2]: 1.7 nM

SMILES: N[C@H]1Cc2c(nc3cc(-c4ncno4)ccn23)C[C@@H]1c1cc(F)c(F)cc1F [Example 5, (7R,8S)-3-(1,2,4-Oxadiazol-5-yl)-7-(2,4,5-trifluorophenyl)-6,7,8,9-tetrahydrobenzo[4,5]imidazo[1,2-a]pyridine-8-amine]
- IC50 [2]: 1 nM

SMILES: N[C@H]1Cc2c(nc3cc(-c4nc[nH]n4)ccn23)C[C@@H]1c1cc(F)c(F)cc1F [Example 7, (7R,8S)-3-(1H-1,2,4-Triazol-3-yl)-7-(2,4,5-trifluorophenyl)-6,7,8,9-tetrahydrobenzo[4,5]imidazo[1,2-a]pyridine-8-amine]
- IC50 [2]: 0.9 nM
